Laboratory results published in patent publication US9149525B2, “Delivery of corticosteroids through iontophoresis” (EyeGate Pharmaceuticals, Inc., priority 2008, dated 2015).
Where two headings read alike, the source gives them in different places.

How the values were obtained:
[1] = rabbit, in vivo
[2] = cited from earlier work
[3] = test system: interleukin-1beta (IL-1β); assay: Cytokine ELISA in lacrimal gland and corneal extracts, IL-1β; format: in vivo, rabbit; details: Day 4 or Day 8
Experimental: (§1) Animals were euthanized on Day 4 or Day 8 following Con A injection. Upon sacrifice, the cornea and lacrimal gland were removed and snap frozen in liquid nitrogen followed by storage at −80° C. All samples were homogenized by hand in a ground-glass homogenizer in 0.5 mL of PBS+10 mM EDTA. Interleukin-1-beta (IL-1β), FIG. 9, and transforming growth factor beta-1 (TGF-β1), FIG. 10, were measured in lacrimal gland and conical extracts using human IL-1β or TGF-β1 ELISA kit (R&D Systems DuoSet development system) according to manufacturer's instructions. Results were normalized for total protein concentration measured in the protein assay. Due to the high homology between rabbit and human IL-1β and TGF-β1, human kits are appropriate for detecting the rabbit cytokine.

[4] = test system: concanavalin A-induced dry eye; assay: Concanavalin A-induced dry eye in rabbits: tear flow and fluorescein staining; format: in vivo, white New Zealand rabbits; details: single 15 mA·min iontophoretic dose, 40 mg/mL, on Day 2
Experimental: 300 μg of Concanavalin A (Sigma) in […] or phosphate-buffered saline (PBS) or PBS alone were injected into the lacrimal glands of white New Zealand rabbits to induce inflammation leading to dry eye symptoms, which is a well-established model of dry eye syndrome.
The animals were assigned to the following treatment groups:
Animals were observed daily following Con A injection for signs of ocular inflammation. Tear flow was measured using Schirmer strips in all groups on Days 0, 1, 2, 4, 7, and 8 after Con A injection (FIG. 6). Signs of ocular surface damage were assessed on Days 0, 2, 4, and 8 using fluorescein staining and slit-lamp microscopy (FIGS. 7 and 8).

[5] = Cathodal trans-scleral iontophoresis in side-by-side diffusion cells, sheep sclera; format: in vitro ADME; details: limited number of experiments
Experimental: (§2) All transscleral iontophoresis studies were performed in side-by-side diffusion cells (transport area 0.2 cm^2, volume 4 mL) with excised rabbit sclera. The tissue was freed from is the conjunctival extraocular muscles and retina. The sclera was clamped between the two half-cells, with the conjunctival side facing the drug solution. Pt or Ag/AgCl electrodes were used to deliver the constant current, which was provided by a power supply. Each experiment was performed in at least quadruplicate. Appropriate passive, no-current controls were performed.
(§3) The receptor solution was again phosphate-buffered saline at pH 7.4. A limited number of experiments were also carried out, in this instance, using sheep sclera. […] Samples of the receptor phase were assayed for dexamethasone by HPLC.

[6] = test system: transforming growth factor beta-1 (TGF-β1); assay: Cytokine ELISA in lacrimal gland and corneal extracts, TGF-β1; format: in vivo, rabbit; details: Day 4 or Day 8
Experimental: as §1

[7] = for Dex AUC0-6h / Dex AUC0-24h: iontophoresis, analyte dexamethasone; for clearance of dexamethasone and DEX phosphate from plasma and ocular tissues: within 48 hours after iontophoretic administration
[8] = Cathodal trans-scleral iontophoresis in side-by-side diffusion cells; format: in vitro ADME; details: 0.5, 1 and 2 mA; after one hour; donor 0.4% w/v in water; rabbit sclera
Experimental: as §2, §3

[9] = In vitro iontophoretic delivery with sodium citrate buffer; format: in vitro ADME
Experimental: In vitro testing was performed at ±3 m A using a 10 mg/mL solution in 100 mM sodium citrate at pH ˜5.66. Approximately 1% transferred to receptor using cathodic delivery.
In vitro testing was performed using four different concentrations of sodium citrate buffer to examine the effect of reducing the number or competing ions on transport efficiency of DEX. […] Other conditions are varied including, for example, eliminating the pH change from the lower concentrations of sodium citrate solutions and using various non-charged excipients to modulate the donor solution osmolarity.

[10] = administered systemically; cited from earlier work
[11] = single iontophoretic dose on Day 2
[12] = aqueous humor, single dose 40 mg/mL Dex P
[13] = aqueous humor, single dose 60 mg/mL Dex P
[14] = choroid, single dose 40 mg/mL Dex P
[15] = choroid, single dose 60 mg/mL Dex P
[16] = plasma, single dose 40 mg/mL Dex P
[17] = plasma, single dose 60 mg/mL Dex P
[18] = vitreous, single dose 40 mg/mL Dex P
[19] = vitreous, single dose 60 mg/mL Dex P

With C[C@@H]1C[C@H]2[C@@H]3CCC4=CC(=O)C=C[C@]4(C)[C@@]3(F)[C@@H](O)C[C@]2(C)[C@@]1(O)C(=O)COP(=O)([O-])[O-].[Na+].[Na+] [DEX disodium phosphate, dexamethasone disodium phosphate] as the molecule, how does the “plasma levels at two hours post dose” value [1] read?
Its value is less than 4000 ng/mL.

With C[C@@H]1C[C@H]2[C@@H]3CCC4=CC(=O)C=C[C@]4(C)[C@@]3(F)[C@@H](O)C[C@]2(C)[C@@]1(O)C(=O)COP(=O)(O)O [DEX phosphate, dexamethasone phosphate] as the molecule, how does the “pKa (first of the two pKa's)” value [2] read?
The value was 1.9.

And the “pKa (second of the two pKa's)” value [2]?
Its value is 6.4.

And the “IL-1β expression in the cornea” value [3]?
The value was “No significant difference”.

What about the “IL-1β expression in the lacrimal glands compared to saline treatment and control groups” value [3, 11] of the same molecule?
The value was “Reduced”.

And the “ocular surface damage (fluorescein staining) compared to control groups” value [4]?
Its value is “decreases the amount of ocular surface damage”.

And the “tear flow (Schirmer strips) compared to control groups” value [4]?
Its value is “increases tear flow”.

And the “electrotransport data with sheep sclera compared with rabbit sclera” value [5]?
Its value is “indistinguishable from those obtained using the corresponding rabbit membranes”.

And the “material fluxed across the membrane (with current)” value (40 mg/mL aqueous solution pH 5.7, cathodic iontophoresis)?
The value was “up to 5%”.

What about the “passive transfer across the membrane (without current)” value (40 mg/mL aqueous solution pH 5.7, up to 120 minutes) of the same molecule?
The value was “little or no”.

And the “dexamethasone in the residual donor solution, share of total area under the curve (HPLC, UV)” value (donor chamber after iontophoresis)?
The value was less than 5%.

What about the “impurities in the donor or receiving chambers under iontophoresis” value (for up to 120 minutes) of the same molecule?
Its value is “no significant impurities were detectable”.

And the “share of the total DEX phosphate initially in the donor chamber found in the receptor chamber” value (receptor chamber)?
Its value is less than 5%.

What about the “dexamethasone in the receptor chamber solution, share of total area under the curve (HPLC, UV)” value (receptor chamber solution) of the same molecule?
The value was less than 5%.

What about the “share of the receptor chamber material that was dexamethasone phosphate” value (receptor chamber solution) of the same molecule?
Its value is 95%.

And the “TGF-β1 expression in the cornea” value [6]?
The value was “No significant difference”.

What about the “TGF-β1 expression in the lacrimal glands compared to saline treatment and control groups” value [6, 11] of the same molecule?
The value was “Reduced”.

And the “Dex AUC0-6h” value [7, 12]?
Its value is 56.5 μg · h/g or μg · h/mL.

And the “Dex AUC0-24h” value [7, 12]?
The value was 73.8 μg · h/g or μg · h/mL.

What about the “Dex AUC0-6h” value [7, 13] of the same molecule?
The value was 123 μg· h/g or μg · h/mL.

And the “Dex AUC0-24h” value [7, 13]?
Its value is 132 μg· h/g or μg · h/mL.

And the “Dex AUC0-6h” value [7, 14]?
Its value is 24.9 μg · h/g or μg · h/mL.

What about the “Dex AUC0-24h” value [7, 14] of the same molecule?
Its value is 35.9 μg · h/g or μg · h/mL.

What about the “Dex AUC0-6h” value [7, 15] of the same molecule?
The value was 49.5 μg· h/g or μg · h/mL.

And the “Dex AUC0-24h” value [7, 15]?
The value was 66.7 μg· h/g or μg · h/mL.

What about the “Dex AUC0-6h” value [7, 16] of the same molecule?
Its value is 1.6 μg · h/g or μg · h/mL.

What about the “Dex AUC0-24h” value [7, 16] of the same molecule?
Its value is 3.3 μg · h/g or μg · h/mL.

What about the “Dex AUC0-6h” value [7, 17] of the same molecule?
The value was 3.7 μg· h/g or μg · h/mL.

What about the “Dex AUC0-24h” value [7, 17] of the same molecule?
Its value is 6.6 μg· h/g or μg · h/mL.

And the “Dex AUC0-6h” value [7, 18]?
Its value is 1.5 μg · h/g or μg · h/mL.

What about the “Dex AUC0-24h” value [7, 18] of the same molecule?
Its value is 2.2 μg · h/g or μg · h/mL.

And the “Dex AUC0-6h” value [7, 19]?
Its value is 2.3 μg· h/g or μg · h/mL.

What about the “Dex AUC0-24h” value [7, 19] of the same molecule?
Its value is 3.0 μg· h/g or μg · h/mL.

And the “clearance of dexamethasone and DEX phosphate from plasma and ocular tissues” value [7]?
The value was “nearly completely cleared”.

And the “clearance of dexamethasone and DEX phosphate from plasma and ocular tissues” value ([7]; listed as DEX-P)?
Its value is “NEARLY COMPLETELY”.

What about the “flux across the sclera versus applied current” value [8] of the same molecule?
Its value is “directly proportional to the applied current”.

Which “DEX flux on decreasing the amount of sodium citrate” value ([9]; four different concentrations of sodium citrate buffer) does the source give for C[C@@H]1C[C@H]2[C@@H]3CCC4=CC(=O)C=C[C@]4(C)[C@@]3(F)[C@@H](O)C[C@]2(C)[C@@]1(O)C(=O)CO [dexamethasone, 9-fluoro-11β,17,21-trihydroxy-16α-methylpregna-1,4-diene-3,20-dione] here?
The value was “increased DEX flux”.

What about the “amount transferred to receptor” value ([9]; ±3 mA, 10 mg/mL solution in 100 mM sodium citrate at pH ~5.66, cathodic delivery) of the same molecule?
Its value is “Approximately 1%”.

And the “anti-inflammatory activity relative to prednisone or prednisolone” value [10]?
Its value is “six to ten times greater”.

And the “anti-inflammatory potency relative to cortisone” value [10]?
Its value is 30 to 40 times.
